Measured values taken from US11845748B2, “Bicyclic pyridine N-oxide derivatives useful as a factor XIa inhibitors” (Janssen Pharmaceutica NV, priority 2021, dated 2023).
Read-outs that look alike come from different tables or passages of the source.

How the values were obtained:
human plasma kallikrein = human plasma kallikrein (Homo sapiens, UniProt P03952); assay: Kallikrein inhibition assay utilizing a quenched AMC peptide substrate (FLINT); format: biochemical; conditions: kinetic reads at 5 min intervals over 30 min; 30 min preincubation; Z-Gly-Pro-Arg-AMC substrate; read-out: Kallikrein (KIN) IC50
human plasma kallikrein, sequence (P03952 391-638 limits assumed): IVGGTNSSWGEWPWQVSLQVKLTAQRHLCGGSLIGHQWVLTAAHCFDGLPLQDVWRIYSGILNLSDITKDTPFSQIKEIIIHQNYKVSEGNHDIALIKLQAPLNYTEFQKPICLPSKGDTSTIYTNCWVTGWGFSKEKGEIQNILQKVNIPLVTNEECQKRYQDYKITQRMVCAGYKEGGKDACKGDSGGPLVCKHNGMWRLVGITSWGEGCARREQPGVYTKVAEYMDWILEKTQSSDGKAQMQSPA
human plasma kallikrein, sequence (P03952 20-390 partner limits assumed): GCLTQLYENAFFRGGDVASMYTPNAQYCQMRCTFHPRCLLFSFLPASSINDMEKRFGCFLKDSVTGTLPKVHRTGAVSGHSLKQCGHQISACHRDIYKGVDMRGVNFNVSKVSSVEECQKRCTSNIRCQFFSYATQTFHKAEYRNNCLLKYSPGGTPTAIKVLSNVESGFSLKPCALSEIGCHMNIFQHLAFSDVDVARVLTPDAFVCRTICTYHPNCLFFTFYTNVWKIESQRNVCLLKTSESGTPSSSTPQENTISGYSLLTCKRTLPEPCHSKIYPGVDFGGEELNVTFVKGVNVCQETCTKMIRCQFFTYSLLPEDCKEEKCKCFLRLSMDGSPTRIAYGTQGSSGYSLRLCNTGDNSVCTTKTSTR
Protocol: Biological Example 2: Kallikrein Inhibition Assay Utilizing a Quenched AMC Peptide Substrate
A fluorescence intensity (FLINT) based assay was used to monitor inhibition of human plasma kallikrein. The peptide substrate, Z-Gly-Pro-Arg-AMC (Purchased from Bachem; Catalog #I-1150) was chosen based on its relatively low KM for kallikrein which enables running the assay at lower substrate concentrations to control background fluorescence. The kinetic parameters for this substrate were determined by fitting titration data to the Michaelis-Menten equation yielding a KM=40 μM, kcat=0.76 s^−1, and kcat/KM=18932 M^−1s^−1.
The Kallikrein FLINT assay was used with the following Z-Gly-Pro-Arg-AMC assay buffer: 50 mM Tris, pH 7.5, 100 mM NaCl, 5 mM CaCl2, 0.1 mg/mL BSA, 0.03% CHAPS. Assay buffer was prepared by mixing all ingredients fresh. 2× Z-Gly-Pro-Arg-AMC peptide substrate was prepared by diluting 10 mM stock into 1× assay buffer for a 100 μM working concentration (50 μM final concentration). The 2× kallikrein stock solution was prepared by diluting 14.76 μM stock in 1× assay buffer for a 4 nM working stock solution (2 nM final concentration).
Test compound(s) were run in an 11-point, 3-fold serial dilution with a final top compound concentration of 1 μM. Final DMSO in assay was 2%. Plasma kallikrein was pre-incubated for 30-minute with compound and then 50 μM substrate was added to initiate the reaction. The assay was run with kinetic (KIN) reads at 5 min intervals over 30 minutes. The time course was linear using 2 nM kallikrein greater than 30 minutes. More specifically, the assay was run as follows: • 100 nL of 0.1 mM test compound was dispensed into black 384-well non-binding Greiner BioOne 784900 plate for 1 μM final concentration; • 5 μL of 1× assay buffer was dispensed to columns 24 (low control) and 5 μL 2× human kallikrein enzyme solution was dispensed to columns 1-23 (column 23 high control); • the plate was centrifuged with a “cover” plate at 500 rpm for 1 min the plate was pre-incubated for 30 minutes at room temperature with plate covered; • 5 μL of 2× Z-Gly-Pro-Arg-AMC peptide substrate was dispensed into the entire plate, columns 1-24; • the plate was centrifuged with a “cover” plate at 500 rpm for 1 min; • the plate was read monitoring fluorescence intensity on the BMG PHERAStar at room temperature, using fluorescence module 340 nm/440 nm.
Percent inhibition (IC50) curves were generated per compound tested, and data was analyzed using a 4-parameter logistic fit using GeneData Screener. The relative fluorescence unit (RFU) values were normalized to percent inhibition using the following equation: % inhibition=((HC−LC)−(compound−LC)/(HC−LC))*100
where LC—low control=mean signal of […] 100% inhibition of human kallikrein enzyme; HC—high control=mean signal of […]+Z-Gly-Pro-Arg-AMC peptide substrate with DMSO only.
(§1) An 11-point dose response curve for the test compound(s) was generated using GENDATA to determine IC50 value based on the following equation: Y=Bottom+(Top−Bottom)/(1+10^((log IC50−X)*HillSlope))
(§2) where Y is the % inhibition in the presence of X inhibitor concentration, Top=high control=mean signal of human kallikrein enzyme+Z-Gly-Pro-Arg-AMC peptide substrate with DMSO only; Bottom=low control−mean signal of no human kallikrein enzyme or 100% inhibition of human kallikrein enzyme; HillSlope—Hill coefficient; and IC50=concentration of compound with 50% inhibition in relation to top/high control.
Representative compounds of formula (I) of the present invention were tested according to the procedure described in Biological Example 1 and Biological Example 2 above, with results as listed in Table 2, below. Results listed in the (ER) column were measured using endpoint reads where a single fluorescence reading was measured for each well at a 30 min timepoint. […]

Factor XIa = Factor XIa (Homo sapiens, UniProt P03951); assay: Factor XIa inhibition assay utilizing a fluorophore-quencher pair peptide substrate (FLINT); format: biochemical; conditions: 30 min preincubation, 5Fam-KLTRAETV-K5Tamra substrate
Factor XIa, sequence (P03951 388-625 limits assumed): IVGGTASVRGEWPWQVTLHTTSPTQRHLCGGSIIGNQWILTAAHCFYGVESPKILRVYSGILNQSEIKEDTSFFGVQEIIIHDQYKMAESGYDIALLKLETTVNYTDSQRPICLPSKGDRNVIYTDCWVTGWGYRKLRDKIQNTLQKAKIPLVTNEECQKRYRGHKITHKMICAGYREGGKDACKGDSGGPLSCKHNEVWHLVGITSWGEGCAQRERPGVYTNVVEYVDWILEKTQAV
Factor XIa, sequence (P03951 19-387 partner limits assumed): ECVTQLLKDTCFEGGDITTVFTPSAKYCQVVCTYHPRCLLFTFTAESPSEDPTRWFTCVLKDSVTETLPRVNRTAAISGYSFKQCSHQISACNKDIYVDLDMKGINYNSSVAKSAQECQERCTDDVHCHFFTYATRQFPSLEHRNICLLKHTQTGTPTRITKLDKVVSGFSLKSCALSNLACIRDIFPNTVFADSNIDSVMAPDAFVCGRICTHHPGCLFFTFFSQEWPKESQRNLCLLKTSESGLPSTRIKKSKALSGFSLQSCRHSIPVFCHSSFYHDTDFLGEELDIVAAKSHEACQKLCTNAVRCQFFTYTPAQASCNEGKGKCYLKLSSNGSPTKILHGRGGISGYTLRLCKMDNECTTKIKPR
Excerpt: Biological Example 1: Factor XIa Inhibition Assay Utilizing a Fluorophore-Quencher Pair Peptide Substrate
A fluorescence intensity (FLINT) based assay was used to monitor inhibition of Factor XIa. The peptide substrate, 5Fam-KLTRAETV-K5Tamra (purchased from New England Peptide) was chosen based on the […]. Conversion of zymogen […]. The custom peptide used in this assay was based on the Arg146 cleavage site of FXI. The peptide substrate was designed with a fluorophore-quencher pair, where the fluorescence is quenched until FXIa cleaves the 8-mer peptide after the Arg residue. The substrate KM was fit to a substrate inhibition model whereby kcat=0.86 s^−1, KM=12.4 μM, Ki=61.6 μM with an enzymatic efficiency, and kcat/KM=69523 M^−1s^−1.
The Factor XIa FLINT assay was used with the following 5Fam-KLTRAETV-K5Tamra assay buffer: 50 mM Tris, pH 7.5, 100 mM NaCl, 5 mM CaCl2, 0.1 mg/mL BSA, 0.03% CHAPS. Assay buffer was prepared by mixing all ingredients fresh. 5Fam-KLTRAETV-K5Tamra peptide substrate was first prepared at 10 mM in 100% DMSO, then diluted to 3 mM in 100% DMSO. Assay buffer was then added directly to the 3 mM stock of substrate to prepare the 30 μM 2× working concentration (15 μM final concentration). The 2× Factor XIa stock solution was prepared by diluting 6.562 μM stock in 1× assay buffer for a 200 pM working stock solution (100 pM final concentration).
Test compound(s) were run in an 11-point, 3-fold serial dilution with a final top compound concentration of 100 nM. Final DMSO in assay was 2%. FXIa was preincubated with compound for 30-minutes and then substrate was added to initiate the reaction. The assay was run with either end point (EP) reads at 30 min or kinetic (KIN) reads at 5 min intervals over 30 minutes. The time course was linear using 100 μM FXIa greater than 30 minutes. More specifically, the assay was run as follows: • 100 nL of 0.01 mM test compound was dispensed into black 384-well non-binding Greiner BioOne 784900 plate for 0.1 μM final concentration; • 5 μL of 1× assay buffer was dispensed to column 24 (low control) and 5 μL 2× Factor XIa solution was dispensed to columns 1-23 (column 23 high control); • the plate was centrifuged with a “cover” plate at 500 rpm for 1 min the plate was pre-incubated for 30 minutes at room temperature with plate covered; • 5 μL of 2× 5Fam-KLTRAETV-K5Tamra peptide substrate was dispensed into the entire plate, columns 1-24; • the plate was centrifuged with a “cover” plate at 500 rpm for 1 min; • the plate was read monitoring fluorescence intensity on the BMG PHERAStar at room temperature, using fluorescence module 485 nm/520 nm.
Percent inhibition (IC50) curves were generated per compound tested, and data was analyzed using a 4-parameter logistic fit using GeneData Screener. The relative fluorescence unit (RFU) values were normalized to percent inhibition using the following equation: % inhibition=((HC−LC)−(compound−LC)/(HC−LC))*100 where LC—low control=mean signal of no Factor XIa or 100% inhibition of Factor XIa; HC—high control=mean signal of Factor XIa+5Fam-KLTRAETV-K5Tamra peptide substrate with DMSO only.
as §1
as §2, with “Factor XIa+5Fam-KLTRAETV-K5Tamra” for “human kallikrein enzyme+Z-Gly-Pro-Arg-AMC”, “Factor XIa” for “human kallikrein enzyme”, “Factor XIa;” for “human kallikrein enzyme;”, “control. […]” for “control.”

[1] = kinetic reads at 5 min intervals over 30 min, read-out: FXIa (KIN) IC50
[2] = end point read at 30 min, read-out: FXIa (EP) IC50

Compound	IC50 (human plasma kallikrein) [nM]	IC50 (Factor XIa; [1]) [nM]	IC50 (Factor XIa; [2]) [nM]
COC(=O)Nc1ccc(-c2cn(C3CCc4cc(-c5c(-n6cnnn6)ccc(Cl)c5F)c[n+]([O-])c43)cn2)cc1 (stereo not drawn) [ID No. 2, 3-(3-Chloro-2-fluoro-6-(1H-tetrazol-1-yl)phenyl)-7-(4-(4-((methoxycarbonyl)amino)phenyl)-1H-imidazol-1-yl)-6,7-dihydro-5H-cyclopenta[b]pyridine 1-oxide]	461	24	
NC(=O)c1ccc(-c2cnn(C3CCc4cc(-c5c(-n6cc(C(F)(F)F)nn6)ccc(Cl)c5F)c[n+]([O-])c43)c2)cc1F (single isomer, unassigned) [ID No. 28, (S*)-7-(4-(4-Carbamoyl-3-fluorophenyl)-1H-pyrazol-1-yl)-3-(3-chloro-2-fluoro-6-(4-(trifluoromethyl)-1H-1,2,3-triazol-1-yl)phenyl)-6,7-dihydro-5H-cyclopenta[b]pyridine 1-oxide]	67	37	
Nc1ccc(-c2cnn(C3CCc4cc(-c5c(-n6cnnn6)ccc(Cl)c5F)c[n+]([O-])c43)c2)c(Cl)n1 (single isomer, unassigned) [ID No. 21, (R*)-7-(4-(6-Amino-2-chloropyridin-3-yl)-1H-pyrazol-1-yl)-3-(3-chloro-2-fluoro-6-(1H-tetrazol-1-yl)phenyl)-6,7-dihydro-5H-cyclopenta[b]pyridine 1-oxide]	> 10000	2380	
Cn1ncc(-c2cnn(C3CCc4cc(-c5c(-n6cnnn6)ccc(Cl)c5F)c[n+]([O-])c43)c2)cc1=O (racemic) [ID No. 19, 3-(3-Chloro-2-fluoro-6-(1H-tetrazol-1-yl)phenyl)-7-(4-(1-methyl-6-oxo-1,6-dihydropyridazin-4-yl)-1H-pyrazol-1-yl)-6,7-dihydro-5H-cyclopenta[b]pyridine 1-oxide]	6360	1170	
COC(=O)Nc1ccc(-c2ccn(C3CCc4cc(-c5cc(Cl)ccc5-n5cnnn5)c[n+]([O-])c43)n2)cc1 (racemic) [ID No. 5, 3-(5-Chloro-2-(1H-tetrazol-1-yl)phenyl)-7-(3-(4-((methoxycarbonyl)amino)phenyl)-1H-pyrazol-1-yl)-6,7-dihydro-5H-cyclopenta[b]pyridine 1-oxide]			109
O=C(O)c1cccc(-c2cnn(C3CCc4cc(-c5cc(Cl)ccc5-n5cnnn5)c[n+]([O-])c43)c2)c1 (racemic) [ID No. 6, 7-(4-(3-Carboxyphenyl)-1H-pyrazol-1-yl)-3-(5-chloro-2-(1H-tetrazol-1-yl)phenyl)-6,7-dihydro-5H-cyclopenta[b]pyridine 1-oxide]			79
COC(=O)Nc1ccc(-c2cnn(C3CCc4cc(-c5c(-n6cnnn6)ccc(Cl)c5F)c[n+]([O-])c43)c2)cc1 (single isomer, unassigned) [ID No. 8, (R*)3-(3-Chloro-2-fluoro-6-(1H-tetrazol-1-yl)phenyl)-7-(4-(4-((methoxycarbonyl)amino)phenyl)-1H-pyrazol-1-yl)-6,7-dihydro-5H-cyclopenta[b]pyridine 1-oxide]			3260
COC(=O)Nc1ccc(-c2cnn(C3CCc4cc(-c5cc(Cl)ccc5OCC(F)(F)F)c[n+]([O-])c43)c2)cc1 (racemic) [ID No. 15, 3-(5-Chloro-2-(2,2,2-trifluoroethoxy)phenyl)-7-(4-(4-((methoxycarbonyl)amino)phenyl)-1H-pyrazol-1-yl)-6,7-dihydro-5H-cyclopenta[b]pyridine 1-oxide]			1690

Second part, the molecule after the results:

IC50 (human plasma kallikrein) [nM]	IC50 (Factor XIa; [1]) [nM]	IC50 (Factor XIa; [2]) [nM]	Compound
8480	765		CC(=O)Nc1ccc(-c2cnn(C3CCCc4cc(-c5c(-n6cnnn6)ccc(Cl)c5F)c[n+]([O-])c43)c2)c(F)n1 (racemic) [ID No. 29, 8-(4-(6-Acetamido-2-fluoropyridin-3-yl)-1H-pyrazol-1-yl)-3-(3-chloro-2-fluoro-6-(1H-tetrazol-1-yl)phenyl)-5,6,7,8-tetrahydroquinoline 1-oxide]
2880	1260		Nc1nc(F)c(-c2cnn(C3CCCc4cc(-c5c(-n6cnnn6)ccc(Cl)c5F)c[n+]([O-])c43)c2)cc1Cl (racemic) [ID No. 30, 8-(4-(6-Amino-5-chloro-2-fluoropyridin-3-yl)-1H-pyrazol-1-yl)-3-(3-chloro-2-fluoro-6-(1H-tetrazol-1-yl)phenyl)-5,6,7,8-tetrahydroquinoline 1-oxide]
987	40		Nc1ccc(-c2cnn(C3CCCc4cc(-c5c(-n6cnnn6)ccc(Cl)c5F)c[n+]([O-])c43)c2)c(F)n1 (single isomer, unassigned) [ID No. 31, (R*)-8-(4-(6-Amino-2-fluoropyridin-3-yl)-1H-pyrazol-1-yl)-3-(3-chloro-2-fluoro-6-(1H-tetrazol-1-yl)phenyl)-5,6,7,8-tetrahydroquinoline 1-oxide]
